Test results: BindingDB's records for doi:10.1016/j.ejmech.2017.05.035 (Universidade Estadual De Feira De Santana, 2017)
pEC50, pKi: −log10 of the molar value.

Test: Antagonist activity at Adenosine receptor subtype 2B in human RBC assessed as change in erythrocyte morphology incubated for 3 hrs with occasional gentle stirring for every 30 min measured for every 12 hrs by microscopic analysis

| Structure (SMILES) | pKi | pEC50 |
| --- | --- | --- |
| Cc1ccc(N2CCN(C(=O)[C@H](C)Oc3ccc(-c4cc5c([nH]4)c(=O)n(C)c(=O)n5C)cc3)CC2)cc1 | 8.74 | – |
| C[C@H](Oc1ccc(-c2cc3c([nH]2)c(=O)n(C)c(=O)n3C)cc1)C(=O)Nc1ccc(Br)cc1 | 8.89 | – |
| CCCc1cc(O)nc(SC(C)C(=O)Nc2cc(C)no2)n1 (stereo not drawn) | – | 7.64 |
| O=C(CN1CCOC(Cn2cncn2)C1)Nc1cccnc1 (stereo not drawn) | – | 7.77 |
| CCCn1c(=O)n(C)c(=O)c2[nH]c(-c3ccc(O[C@@H](C)C(=O)N4CCN(c5nc6ccc(Cl)cc6s5)CC4)cc3)cc21 | 9.00 | – |

Second part, the compound after the results:

| pKi | pEC50 | Structure (SMILES) |
| --- | --- | --- |
| – | 7.46 | Cc1cc(NC(=O)CNc2ccc3c(c2)OC(F)(F)O3)on1 |
| – | 7.46 | CC(C)c1noc(OCC(=O)NCc2ccc3c(c2)OCO3)n1 |
| – | 7.33 | CC(OC(=O)c1nccnc1N)C(=O)NCc1ccc2c(c1)OCO2 (stereo not drawn) |
